{
  "source": "patent US10738080B2",
  "about": "“Inhibitors of beta integrin-G protein alpha subunit binding interactions” (priority 2010, dated 2020)",
  "target": "T1, Gα13 binding to β3 (Homo sapiens, UniProt P05106+Q14344)",
  "T1 construct": "Proteins from platelet lysates were immunoprecipitated with control IgG or antibody to Gα13; The integrin αIIbβ3 was co-immunoprecipitated by anti-Gα13 antibody, but not control IgG, from platelet lysates; endogenous in cells; host or cells: washed human platelets (lysates)",
  "T1 sequence (Q14344 1-377)": "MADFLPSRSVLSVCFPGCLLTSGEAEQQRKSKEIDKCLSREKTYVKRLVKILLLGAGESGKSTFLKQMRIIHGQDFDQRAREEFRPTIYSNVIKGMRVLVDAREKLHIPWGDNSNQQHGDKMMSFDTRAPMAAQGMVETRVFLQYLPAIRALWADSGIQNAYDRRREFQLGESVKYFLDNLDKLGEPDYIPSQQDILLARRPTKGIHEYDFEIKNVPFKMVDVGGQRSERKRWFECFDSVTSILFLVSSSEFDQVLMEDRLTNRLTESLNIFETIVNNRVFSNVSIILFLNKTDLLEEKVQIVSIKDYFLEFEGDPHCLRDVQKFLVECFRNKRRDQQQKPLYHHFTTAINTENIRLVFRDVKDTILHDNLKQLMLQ",
  "T1 sequence (P05106 27-788)": "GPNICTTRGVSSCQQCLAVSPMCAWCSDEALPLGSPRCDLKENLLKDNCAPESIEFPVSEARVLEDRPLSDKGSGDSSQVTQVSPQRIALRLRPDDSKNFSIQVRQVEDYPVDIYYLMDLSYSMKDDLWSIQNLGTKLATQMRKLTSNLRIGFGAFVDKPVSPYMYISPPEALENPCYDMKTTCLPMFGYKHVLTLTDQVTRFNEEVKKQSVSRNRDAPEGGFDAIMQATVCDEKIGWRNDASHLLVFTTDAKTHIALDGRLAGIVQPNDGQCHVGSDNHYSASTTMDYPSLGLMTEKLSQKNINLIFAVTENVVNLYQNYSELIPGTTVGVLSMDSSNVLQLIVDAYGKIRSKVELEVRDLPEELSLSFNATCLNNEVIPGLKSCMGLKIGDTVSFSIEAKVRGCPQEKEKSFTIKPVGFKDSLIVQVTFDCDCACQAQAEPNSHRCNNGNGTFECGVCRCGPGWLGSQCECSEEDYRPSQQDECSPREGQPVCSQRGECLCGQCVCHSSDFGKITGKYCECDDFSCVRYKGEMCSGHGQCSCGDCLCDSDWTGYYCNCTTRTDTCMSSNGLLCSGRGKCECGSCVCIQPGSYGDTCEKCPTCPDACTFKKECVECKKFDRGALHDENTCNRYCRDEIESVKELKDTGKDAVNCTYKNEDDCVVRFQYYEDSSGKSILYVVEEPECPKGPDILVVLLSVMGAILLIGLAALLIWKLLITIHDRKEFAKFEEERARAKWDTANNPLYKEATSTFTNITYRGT",
  "test": "Co-immunoprecipitation of β3 with Gα13 from platelet lysates",
  "details": "for co-immunoprecipitation between Gα13 and β3: platelets/platelet lysates, 500 μM peptide",
  "description": "As previously described (S7), cell lysates were incubated with 2 μg/ml of D57 (antibody to integrin αIIbβ3), LJP3 (antibody against GPIb), or mouse IgG, and further incubated with protein G-conjugated Sepharose beads. Cell lysates were also incubated with rabbit anti-Gα13 IgG antibody (1.5 μg/ml) or an equal amount of rabbit IgG and further incubated with protein A-conjugated Sepharose beads. After 3-6 washes with lysis buffer, immunoprecipitates were analyzed by SDS-polyacrylamide gel electrophoresis and Western blots with antibodies against β3 (MAb15), GPIb (anti-IbαC (S8)) or Gα13. In some experiments, 1 μM GDP, 1 μM GTPγS or 30 μM AlF4^− were added to the reaction to assess the effect of Gα13 activation on integrin binding. In other experiments, 250 μM mSRI or scrambled control peptide was incubated with platelet lysates prior to immunoprecipitation. GST bead pull down analysis was previously described (S7). Purified Gα13 was incubated with glutathione beads-bound to GST, GST-β1CD or GST-β3 CD at 4° C. overnight. Bead-bound proteins were analyzed by immunoblotting. For GST-β3CD cDNA construction, integrin-β3 cytoplasmic domain (716-762) cDNA was generated by PCR and cloned into pGEX-4T2 vector using Bam HI and Xho I restriction sites. The forward primer is 5′-[…]-3′ (SEQ ID NO: 48); the reverse primer is 5′-[…]-3′ (SEQ ID NO: 49). For GST-I31CD cDNA construction, β1 cytoplasmic domain (752-798) cDNA was amplified by PCR and cloned into pGEX-4T1 vector using EcoRI and Xho I restriction sites. The primer sequences are: (1) forward: 5′-[…]-3′ (SEQ ID NO: 50); (2) reverse: […]-3′ (SEQ ID NO: 51). GST, GST-β1CD and GST-β3CD were purified from BL21 (DE3) E. coli using glutathione-conjugated beads.\nCell lysates were incubated with rabbit anti-Gα13 IgG (1.5 μg/ml), anti-integrin β3 rabbit serum (5 μl/ml) or an equal amount of rabbit IgG or pre-immune serum at 4° C. overnight, and subsequently with protein A-conjugated Sepharose beads for 1 hour. For the integrin β3 clustering experiment, human platelets (3×10^8) were stimulated with 0.025 U/ml α-thrombin for 2 minutes at room temperature (to avoid platelet aggregation) with or without 2 mM RGDS, then incubated with 5 μl anti-integrin β3 8053 rabbit serum at room temperature for 1 hour, and 5 μg goat anti-rabbit secondary antibody for another 1 hour. Platelets were then solubilized in modified RIPA Buffer. For the un-clustering control and pre-immune serum control, cells were solubilized in modified RIPA Buffer first, than incubated with 5 μl 8053 serum or pre-immune serum. After 3-6 washes with lysis buffer, immunoprecipitates were analyzed by SDS-polyacrylamide gel electrophoresis and Western blots using antibodies against β3, talin, or Gα13. In some experiments, 500 μM control or inhibitor peptides, mP5, mP7 and mP13 were incubated with platelet lysates prior to immunoprecipitation, or 2 mM RGDS was added into washed human platelets before stimulation by 0.025 U/ml α-thrombin. GST bead pull down analysis was previously described^8. Purified Gα13 or MBP-talin head were incubated with glutathione beads-bound to GST or GST-β3CD at 4° C. overnight. Bead-bound proteins were analyzed by immunoblotting.",
  "note": "No end group written: not given here. *: point of attachment. Myristoyl = CCCCCCCCCCCCCC(=O)*",
  "data": [
    {"substance": "Myr-EEERA [mP5]", "values": [
      {"measurement": "co-immunoprecipitation between Gα13 and β3", "value": "inhibited"}
    ]},
    {"substance": "Myristoyl-KFEEERA [mP7]", "values": [
      {"measurement": "co-immunoprecipitation between Gα13 and β3", "value": "inhibited"}
    ]},
    {"substance": "Myristoyl-KFEEERARAKWDT [mP13]", "values": [
      {"measurement": "co-immunoprecipitation between Gα13 and β3", "value": "inhibited"}
    ]},
    {"substance": "Myristoyl-LLARRPTKGIHEY [mSRI]", "values": [
      {"measurement": "Gα13 binding to β3 (co-immunoprecipitation of β3 with Gα13)", "setting": "platelet lysates, 250 μM peptide", "value": "inhibited"}
    ]}
  ]
}
